Active and inactive are the calls of the source. No rule for the calls is given here.
System: rodent carcinogenicity bioassays, tumor incidence
Test: CCRIS carcinogenicity studies
Method in brief: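 NCI-built, expert-reviewed records of carcinogenicity and related test outcomes (mutagenicity, tumor promotion/inhibition) compiled from published and report sources, historical span 1985-2011, not updated.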

Compound: NC(Cc1ccc(N(CCCl)CCCl)cc1)C(=O)O (centres undefined)
- carcinogen call (Species: RAT, Strain/Sex: SWISS/FEMALE, Route: INTRAPERITONEAL, Dose: 10 MG/KG, Tumor Site: Type of Lesion: MAMMARY GLAND: FIBROADENOMA): active; positive

Compound: Cc1ccc(S(=O)(=O)Oc2ccc(N=Nc3ccc(-c4ccc(N=Nc5c(O)ccc6cc(S(=O)(=O)O)cc(S(=O)(=O)O)c56)c(C)c4)cc3C)cc2)cc1
- carcinogen call (Species: RAT, Strain/Sex: F344/FEMALE, Route: ORAL, Dose: 0, 150, 300, 600 PPM IN DRINKING WATER 7 D/WK FOR 104 WK (STUDY DURATION: 104 WK), Dose: 0, 150, 300, 600 PPM IN DRINKING WATER 7 D/WK FOR 104 WK (STUDY DURATION: 104 WK), Tumor Site: Type of Lesion: CLITORAL GLAND: ADENOMA OR CARCINOMA, LIVER: NEOPLASTIC NODULE OR HEPATOCELLULAR CARCINOMA, LUNG: ALVEOLAR/BRONCHIOLAR A, Tumor Site: Type of Lesion: CLITORAL GLAND: ADENOMA OR CARCINOMA, LIVER: NEOPLASTIC NODULE OR HEPATOCELLULAR CARCINOMA, LUNG: ALVEOLAR/BRONCHIOLAR A): active; positive
- carcinogen call (Species: RAT, Strain/Sex: F344/MALE, Route: ORAL, Dose: 0, 70, 150, 300 PPM IN DRINKING WATER 7 D/WK FOR 104 WK (STUDY DURATION: 104 WK), Dose: 0, 70, 150, 300 PPM IN DRINKING WATER 7 D/WK FOR 104 WK (STUDY DURATION: 104 WK), Tumor Site: Type of Lesion: LIVER: NEOPLASTIC NODULE OR HEPATOCELLULAR CARCINOMA, SKIN: BASAL CELL ADENOMA, BASAL CELL CARCINOMA, KERATOACANTHOMA, S): active; positive

Compound: C=CCOCC1CO1 (centres undefined)
- carcinogen call (Species: MOUSE, Strain/Sex: B6C3F1/FEMALE, Route: INHALATION, Dose: 0, 5, 10 PPM 6 HR/D 5 D/WK FOR 102 WK (STUDY DURATION: 105 WK), Dose: 0, 5, 10 PPM 6 HR/D 5 D/WK FOR 102 WK (STUDY DURATION: 105 WK), Tumor Site: Type of Lesion: NOSE (RESPIRATORY EPITHELIUM): ADENOMA): equivocal
- carcinogen call (Species: MOUSE, Strain/Sex: B6C3F1/MALE, Route: INHALATION, Dose: 0, 5, 10 PPM 6 HR/D 5 D/WK FOR 102 WK (STUDY DURATION: 105 WK), Dose: 0, 5, 10 PPM 6 HR/D 5 D/WK FOR 102 WK (STUDY DURATION: 105 WK), Tumor Site: Type of Lesion: NOSE (RESPIRATORY EPITHELIUM): ADENOMA): active; positive
- carcinogen call (Species: RAT, Strain/Sex: OSBORNE-MENDEL/FEMALE, Route: INHALATION, Dose: 0, 5, 10 PPM 6 HR/D 5 D/WK FOR 103 WK (STUDY DURATION: 106 WK), Dose: 0, 5, 10 PPM 6 HR/D 5 D/WK FOR 103 WK (STUDY DURATION: 106 WK)): inactive; negative
- carcinogen call (Species: RAT, Strain/Sex: OSBORNE-MENDEL/MALE, Route: INHALATION, Dose: 0, 5, 10 PPM 6 HR/D 5 D/WK FOR 103 WK (STUDY DURATION: 106 WK), Dose: 0, 5, 10 PPM 6 HR/D 5 D/WK FOR 103 WK (STUDY DURATION: 106 WK), Tumor Site: Type of Lesion: NOSE (RESPIRATORY OR OLFACTORY EPITHELIUM): PAPILLARY ADENOMA, SQUAMOUS CELL CARCINOMA, POORLY DIFFERENTIATED ADENOCARCI): equivocal

Compound: CS(=O)(=O)OCCCCOS(C)(=O)=O
- carcinogen call (Species: MOUSE, Route: INTRAVENOUS, Tumor Site: Type of Lesion: OVARIES, THYMUS GLAND): active; positive

Compound: O=[N+]([O-])c1cc2ccc3cccc4ccc(c1)c2c34
- carcinogen call (Species: RAT, Strain/Sex: STRAIN-CD/FEMALE, Route: INJECTION, Dose: 0, 0.1 ML IN 20.3 UMOL/ML DMSO INJECTED INTO MAMMARY TISSUE OF THE 3 LEFT THORACIC NIPPLES FOLLOWED THE NEXT D BY SIMILA): inactive; negative
- carcinogen call (Species: RAT, Strain/Sex: STRAIN-CD/FEMALE, Route: INJECTION, Dose: 0, 0.1 ML OF A 20.3 UMOL/ML SOLUTION IN DMSO INJECTED INTO MAMMARY TISSUE UNDERLYING 3 LEFT THORACIC NIPPLES THE FOLLOWI): inactive; negative
- carcinogen call (Species: RAT, Strain/Sex: STRAIN-CD/FEMALE, Route: INTRAPERITONEAL, Dose: 0, 67 UMOL/KG BW IN DMSO 3/WK FOR 4 WK (STUDY DURATION: 61 WK), Tumor Site: Type of Lesion: HEMATOPOIETIC SYSTEM: LEUKEMIA, LYMPHOMA): active; positive
- carcinogen call (Species: RAT, Strain/Sex: STRAIN-CD/FEMALE, Route: INTRAPERITONEAL, Dose: 0, 67 UMOL/KG/BW IN 25 UMOL/ML DMSO 3/WK FOR 4 WK (TOTAL DOSE: 0; 119 UMOL) ADMINISTERED TO WEANLING RATS (STUDY DURATIO, Dose: 0, 67 UMOL/KG/BW IN 25 UMOL/ML DMSO 3/WK FOR 4 WK (TOTAL DOSE: 0; 119 UMOL) ADMINISTERED TO WEANLING RATS (STUDY DURATIO, Tumor Site: Type of Lesion: HEMATOPOIETIC SYSTEM: LEUKEMIA OR LYMPHOMA): active; positive

Compound: C[C@]12CC[C@H]3C(=CCc4cc(OS(=O)(=O)O)ccc43)[C@@H]1CCC2=O
- carcinogen call (Species: HAMSTER, Strain/Sex: SYRIAN/MALE, Route: SUBCUTANEOUS IMPLANT, Dose: 0, 20 MG IN PELLETS IMPLANTED EVERY 2.5 MO FOR 9 MO (STUDY DURATION: 9 MO), Tumor Site: Type of Lesion: KIDNEY: TUMOR): active; positive

Compound: C=CC(=O)OC
- carcinogen call (Species: RAT, Strain/Sex: SPRAGUE-DAWLEY/FEMALE, Route: INHALATION, Dose: 0, 15, 45, 135 PPM 6 HR/D 5 D/WK FOR 24 MO (STUDY DURATION: 130 WK), Dose: 0, 15, 45, 135 PPM 6 HR/D 5 D/WK FOR 24 MO (STUDY DURATION: 130 WK)): inactive; negative
- carcinogen call (Species: RAT, Strain/Sex: SPRAGUE-DAWLEY/MALE, Route: INHALATION, Dose: 0, 15, 45, 135 PPM 6 HR/D 5 D/WK FOR 24 MO (STUDY DURATION: 130 WK), Dose: 0, 15, 45, 135 PPM 6 HR/D 5 D/WK FOR 24 MO (STUDY DURATION: 130 WK)): inactive; negative

Compound: CCOc1ccc(N(O)C(C)=O)cc1
- carcinogen call (Species: RAT, Strain/Sex: ALBINO/MALE, Route: ORAL, Dose: 0.05, 0.1, 0.5% IN DIET, Dose: 0.05, 0.1, 0.5% IN DIET, Tumor Site: Type of Lesion: LIVER: HEPATOCELLULAR CARCINOMA): active; positive

Compound: CNc1ccc(N)cc1
- carcinogen call (Species: MOUSE, Strain/Sex: B6C3F1/MALE, Route: INTRAPERITONEAL, Dose: 0, 0.15 UMOL/G ONCE IN SODIUM ACETATE BUFFER (STUDY DURATION: 10 MO)): inactive; negative

Compound: O=Nc1ccc2ccccc2c1
- carcinogen call (Species: MOUSE, Strain/Sex: SWISS/MALE, Route: SUBCUTANEOUS, Dose: 100 UG IN GELATIN ON FIRST, THIRD AND FIFTH D OF LIFE, Tumor Site: Type of Lesion: LIVER: HEPATOMA): active; positive

Compound: CC(Cl)CCCC(Cl)CCCC(Cl)CCCC(Cl)CCCC(Cl)CCCC(Cl)CCCl (centres undefined)
- carcinogen call (Species: MOUSE, Strain/Sex: B6C3F1/FEMALE, Route: GAVAGE, Dose: 0, 2500, 5000 MG/KG IN CORN OIL 5 D/WK FOR 103 WK (STUDY DURATION: 103 WK), Dose: 0, 2500, 5000 MG/KG IN CORN OIL 5 D/WK FOR 103 WK (STUDY DURATION: 103 WK), Tumor Site: Type of Lesion: LIVER: HEPATOCELLULAR ADENOMA, HEPATOCELLULAR CARCINOMA): equivocal
- carcinogen call (Species: MOUSE, Strain/Sex: B6C3F1/MALE, Route: GAVAGE, Dose: 0, 2500, 5000 MG/KG IN CORN OIL 5 D/WK FOR 103 WK (STUDY DURATION: 103 WK), Dose: 0, 2500, 5000 MG/KG IN CORN OIL 5 D/WK FOR 103 WK (STUDY DURATION: 103 WK), Tumor Site: Type of Lesion: HEMATOPOIETIC SYSTEM: MALIGNANT LYMPHOMA): active; positive
- carcinogen call (Species: RAT, Strain/Sex: F344/FEMALE, Route: GAVAGE, Dose: 0, 100, 300, 900 MG/KG IN CORN OIL 5 D/WK FOR 103 WK (STUDY DURATION: 103 WK), Dose: 0, 100, 300, 900 MG/KG IN CORN OIL 5 D/WK FOR 103 WK (STUDY DURATION: 103 WK), Tumor Site: Type of Lesion: ADRENAL GLAND: MEDULLARY PHEOCHROMOCYTOMA): equivocal
- carcinogen call (Species: RAT, Strain/Sex: F344/MALE, Route: GAVAGE, Dose: 0, 1875, 3750 MG/KG IN CORN OIL 5 D/WK FOR 103 WK (STUDY DURATION: 103 WK), Dose: 0, 1875, 3750 MG/KG IN CORN OIL 5 D/WK FOR 103 WK (STUDY DURATION: 103 WK)): inactive; negative

Compound: OCl
- carcinogen call (Species: RAT, Strain/Sex: SPRAGUE-DAWLEY/FEMALE, Route: ORAL, Dose: 0, 100, 500, 750 MG/L IN DRINKING WATER FOR 104 WK (STUDY DURATION: LIFETIME), Dose: 0, 100, 500, 750 MG/L IN DRINKING WATER FOR 104 WK (STUDY DURATION: LIFETIME), Tumor Site: Type of Lesion: LYMPHATIC SYSTEM: LYMPHOMA OR LEUKEMIA): active; positive
- carcinogen call (Species: RAT, Strain/Sex: SPRAGUE-DAWLEY/MALE, Route: ORAL, Dose: 0, 100, 500, 750 MG/L IN DRINKING WATER FOR 104 WK (STUDY DURATION: LIFETIME), Dose: 0, 100, 500, 750 MG/L IN DRINKING WATER FOR 104 WK (STUDY DURATION: LIFETIME)): inactive; negative

Reference: PubChem BioAssay AID1259411 (Chemical Carcinogenesis Research Information System (CCRIS), 2018)
